In patent publication US11518735B2 (AE KYUNG INDUSTRIAL CO., LTD, priority 2017, dated 2022):
“Also recorded” adds a separate entry of the source.

Assay: Thermal stability by HPLC analysis, samples heated in oven at 90° C.
Assay type: physicochemical
Conditions: for HPLC peak area: 90° C. oven; for change in peak area (degree of decomposition): after 24 hours versus initial peak area
Description: The thermal stability tests were conducted by heating the compound samples of Formulas 3 and 7 in an oven maintained at 90° C. and measuring the degree of decomposition of each sample.

| Structure (SMILES) | HPLC peak area (0 hour) | HPLC peak area (3 hours) | HPLC peak area (6 hours) | HPLC peak area (24 hours) | change in peak area (degree of decomposition) (90° C.) | HPLC peak area (1 hour) | high-temperature stability compared with Formula 7 (HPLC, 90° C.) |
| --- | --- | --- | --- | --- | --- | --- | --- |
| CCCCCCCC/C=C/CCCCCCCCNC(=O)CC(/C=C/CCCCCCCCCCCCCCCC)C(=O)O (stereo not shown) [Formula 7, reference compound] | 21694395 | 10982003 | 11400622 | 7124834 | nearly one third of the initial peak area | – | – |
| CCCCCCCCCC/C=C/C(CC(=O)NCCCCCCCCCCCCCCCCCC)C(=O)O (stereo not shown) [Formula 3] | 22760548 | – | – | 22896857 | little change in the peak area ratio | 22871539 | better high-temperature stability; also recorded: improved stability |
